# Results as given in patent US20020137929A1, “1 - (3-heterocyclylphenyl) isothiourea, -isourea, -guanidine and -amidine herbicidal agents” (Intellectual Property Department, BASF Aktiengesellschaft, priority 1998, published 2002).
# Key:
# [1] = test system: ECHORC (Watergrass (Calif.)); assay: Postemergence weed control under flooded paddy conditions; assay type: in vivo, Echinochloa oryzoides; conditions: postemergence weeds
# Summary of the method: (§1)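 Flood-water application, about 0.0313–0.500 kg/ha a.i. in aqueous/acetone 50/50 v/v; water depth 1.5–3 cm throughout. Weeds 3–5 cm, rice 1.5–2.5 leaf. Greenhouse; 0–9 visual rating vs control at 3–4 wk.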
# [2] = test system: ECHORC (Watergrass (Calif.)); assay: Preemergence weed control under flooded paddy conditions; assay type: in vivo, Echinochloa oryzoides; conditions: rated 3-4 weeks after treatment
# Summary of the method: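 First, seeds or propagules go into the top 0.5 cm of silt loam; next, water is held 1.5 to 3 cm over the soil; then compound (50/50 acetone/water) is pipetted into it at about 0.0313 to 0.500 kg/ha; finally plants are rated visually 0-9 after three to four weeks.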
# [3] = test system: GLXMAW (Soybean, Williams); assay: Postemergence herbicidal evaluation; assay type: in vivo, Glycine max, (L.) Merr. cv Williams; conditions: for Herbicidal rating GLXMAW: postemergence
# Summary of the method: (§2)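 Visual 0-9 injury score (stand, vigor, malformation, size, chlorosis, appearance vs untreated) taken four to five weeks post-spray, averaged across repeat tests. Test plants about two weeks old; foliar spray of acetone/water (1:1) with 0.5% surfactant delivering ~0.0156-0.500 kg active/ha.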
# ABUTH (Velvetleaf) = assay: Postemergence herbicidal evaluation; assay type: in vivo, Abutilon theophrasti; conditions: for Herbicidal rating ABUTH: postemergence
# Summary of the method: as §2
# SETVI (Foxtail, Green) = assay: Postemergence herbicidal evaluation; assay type: in vivo, Setaria viridis; conditions: for Herbicidal rating SETVI: postemergence
# Summary of the method: as §2
# [4] = test system: IPOHE (Morningglory, Ivyleaf); assay: Postemergence herbicidal evaluation; assay type: in vivo, Ipomoea hederacea; conditions: for Herbicidal rating IPOHE: postemergence
# Summary of the method: as §2
# CYPIR (Rice Flatsedge) = assay: Postemergence weed control under flooded paddy conditions; assay type: in vivo, Cyperus iria; conditions: postemergence weeds
# Summary of the method: as §1
# CYPSE (Flatsedge) = assay: Preemergence weed control under flooded paddy conditions; assay type: in vivo, Cyperus serotinus; conditions: rated 3-4 weeks after treatment
# Summary of the method: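 Values are visual 0-9 scores against a control for a preemergence application into paddy flood water at about 0.0313 to 0.500 kg/ha. Greenhouse duration was three to four weeks.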
# ZEAMX (Corn, Field) = assay: Postemergence herbicidal evaluation; assay type: in vivo, Zea mays; conditions: for Herbicidal rating ZEAMX: postemergence
# Summary of the method: as §2
# [5] = rate 0.0313 kg/ha, 3-4 weeks after treatment
# [6] = rate 0.0625 kg/ha, 3-4 weeks after treatment
# [7] = rate 0.1250 kg/ha, 3-4 weeks after treatment
# [8] = rate 0.2500 kg/ha, 3-4 weeks after treatment
# [9] = Rate 0.0313 kg/ha, rated 3 to 4 weeks after treatment
# [10] = Rate 0.0625 kg/ha, rated 3 to 4 weeks after treatment
# [11] = Rate 0.1250 kg/ha, rated 3 to 4 weeks after treatment
# [12] = Rate 0.2500 kg/ha, rated 3 to 4 weeks after treatment
# [13] = Rate 0.5000 kg/ha, rated 3 to 4 weeks after treatment
molecule,measurement,setting,value
"2-{{2-Chloro-5-[3,6-dihydro-3-methyl-2,6-dioxo-4-(trifluoromethyl)-1(2H)-pyrimidinyl]-4-fluoro-phenyl}imino}-4-oxo-3,5-thiazolidenediacetic acid, 3-ethyl (2-propynyl) ester, (2:1) mixture with di-2-propynyl ester [Compound 58]",Herbicidal rating ECHORC,[1]; [5],7.0
same,Herbicidal rating ECHORC,[1]; [6],7.0
same,Herbicidal rating ECHORC,[1]; [7],7.0
same,Herbicidal rating ECHORC,[1]; [8],9.0
same,ECHORC herbicidal effect rating,[2]; 0.0313 kg/ha,7.0
same,Herbicidal rating ECHORC,[2]; 0.0625 kg/ha,7.0
same,Herbicidal rating ECHORC,[2]; 0.1250 kg/ha,7.0
same,Herbicidal rating ECHORC,[2]; 0.2500 kg/ha,9.0
same,Postemergence herbicidal rating GLXMAW,[3]; Rate 0.0158 kg/ha,7.0
same,Postemergence herbicidal rating GLXMAW,[3]; Rate 0.0315 kg/ha,7.0
same,Postemergence herbicidal rating GLXMAW,[3]; Rate 0.0630 kg/ha,8.5
same,Postemergence herbicidal rating ABUTH,ABUTH (Velvetleaf); Rate 0.0158 kg/ha,9.0
same,Postemergence herbicidal rating ABUTH,ABUTH (Velvetleaf); Rate 0.0315 kg/ha,9.0
same,Postemergence herbicidal rating ABUTH,ABUTH (Velvetleaf); Rate 0.0630 kg/ha,9.0
same,Postemergence herbicidal rating SETVI,"SETVI (Foxtail, Green); Rate 0.0158 kg/ha",9.0
same,Postemergence herbicidal rating SETVI,"SETVI (Foxtail, Green); Rate 0.0315 kg/ha",9.0
same,Postemergence herbicidal rating SETVI,"SETVI (Foxtail, Green); Rate 0.0630 kg/ha",9.0
same,Postemergence herbicidal rating IPOHE,[4]; Rate 0.0158 kg/ha,9.0
same,Postemergence herbicidal rating IPOHE,[4]; Rate 0.0315 kg/ha,9.0
same,Postemergence herbicidal rating IPOHE,[4]; Rate 0.0630 kg/ha,9.0
same,Herbicidal rating CYPIR,CYPIR (Rice Flatsedge); [5],0.0
same,Herbicidal rating CYPIR,CYPIR (Rice Flatsedge); [6],0.0
same,Herbicidal rating CYPIR,CYPIR (Rice Flatsedge); [7],2.0
same,Herbicidal rating CYPIR,CYPIR (Rice Flatsedge); [8],3.0
same,CYPSE herbicidal effect rating,CYPSE (Flatsedge); 0.0313 kg/ha,5.0
same,Herbicidal rating CYPSE,CYPSE (Flatsedge); 0.0625 kg/ha,5.0
same,Herbicidal rating CYPSE,CYPSE (Flatsedge); 0.1250 kg/ha,5.0
same,Herbicidal rating CYPSE,CYPSE (Flatsedge); 0.2500 kg/ha,5.0
same,Postemergence herbicidal rating ZEAMX,"ZEAMX (Corn, Field); Rate 0.0158 kg/ha",7.0
same,Postemergence herbicidal rating ZEAMX,"ZEAMX (Corn, Field); Rate 0.0315 kg/ha",7.0
same,Postemergence herbicidal rating ZEAMX,"ZEAMX (Corn, Field); Rate 0.0630 kg/ha",8.0
"CCOC(=O)CN1C(=O)C(CC(=O)OC(C)C)SC1=Nc1cc(-n2c(=O)cc(C(F)(F)F)n(C)c2=O)c(F)cc1Cl (stereo not shown) [Compound 55, 2-{{2-Chloro-5-[3,6-dihydro-3-methyl-2,6-dioxo-4-(trifluoromethyl)-1(2H)-pyrimidinyl]-4-fluoro-phenyl}imino}-4-oxo-3,5-thiazolidinediacetic acid, 3-ethyl isopropyl ester]",Herbicidal rating ECHORC,[1]; [5],7.0
same,Herbicidal rating ECHORC,[1]; [6],7.0
same,Herbicidal rating ECHORC,[1]; [7],7.0
same,Herbicidal rating ECHORC,[1]; [8],7.0
same,Herbicidal rating ECHORC,[2]; 0.0313 kg/ha,7.0
same,Herbicidal rating ECHORC,[2]; 0.0625 kg/ha,7.0
same,Herbicidal rating ECHORC,[2]; 0.1250 kg/ha,7.0
same,Herbicidal rating ECHORC,[2]; 0.2500 kg/ha,7.0
same,Postemergence herbicidal rating GLXMAW,[3]; Rate 0.0158 kg/ha,8.0
same,Postemergence herbicidal rating GLXMAW,[3]; Rate 0.0313 kg/ha,8.2
same,Postemergence herbicidal rating GLXMAW,[3]; Rate 0.0625 kg/ha,8.0
same,Postemergence herbicidal rating GLXMAW,[3]; Rate 0.1250 kg/ha,8.3
same,Postemergence herbicidal rating GLXMAW,[3]; Rate 0.2500 kg/ha,8.0
same,Postemergence herbicidal rating ABUTH,ABUTH (Velvetleaf); Rate 0.0158 kg/ha,8.0
same,Postemergence herbicidal rating ABUTH,ABUTH (Velvetleaf); Rate 0.0313 kg/ha,9.0
same,Postemergence herbicidal rating ABUTH,ABUTH (Velvetleaf); Rate 0.0625 kg/ha,9.0
same,Postemergence herbicidal rating ABUTH,ABUTH (Velvetleaf); Rate 0.1250 kg/ha,9.0
same,Postemergence herbicidal rating ABUTH,ABUTH (Velvetleaf); Rate 0.2500 kg/ha,9.0
same,Postemergence herbicidal rating SETVI,"SETVI (Foxtail, Green); Rate 0.0158 kg/ha",9.0
same,Postemergence herbicidal rating SETVI,"SETVI (Foxtail, Green); Rate 0.0313 kg/ha",9.0
same,Postemergence herbicidal rating SETVI,"SETVI (Foxtail, Green); Rate 0.0625 kg/ha",9.0
same,Postemergence herbicidal rating SETVI,"SETVI (Foxtail, Green); Rate 0.1250 kg/ha",9.0
same,Postemergence herbicidal rating SETVI,"SETVI (Foxtail, Green); Rate 0.2500 kg/ha",9.0
same,Postemergence herbicidal rating IPOHE,[4]; Rate 0.0158 kg/ha,9.0
same,Postemergence herbicidal rating IPOHE,[4]; Rate 0.0313 kg/ha,9.0
same,Postemergence herbicidal rating IPOHE,[4]; Rate 0.0625 kg/ha,9.0
same,Postemergence herbicidal rating IPOHE,[4]; Rate 0.1250 kg/ha,9.0
same,Postemergence herbicidal rating IPOHE,[4]; Rate 0.2500 kg/ha,9.0
same,Herbicidal rating CYPIR,CYPIR (Rice Flatsedge); [5],9.0
same,Herbicidal rating CYPIR,CYPIR (Rice Flatsedge); [6],9.0
same,Herbicidal rating CYPIR,CYPIR (Rice Flatsedge); [7],9.0
same,Herbicidal rating CYPIR,CYPIR (Rice Flatsedge); [8],9.0
same,Herbicidal rating CYPSE,CYPSE (Flatsedge); 0.0313 kg/ha,0.0
same,Herbicidal rating CYPSE,CYPSE (Flatsedge); 0.0625 kg/ha,0.0
same,Herbicidal rating CYPSE,CYPSE (Flatsedge); 0.1250 kg/ha,0.0
same,Herbicidal rating CYPSE,CYPSE (Flatsedge); 0.2500 kg/ha,0.0
same,Postemergence herbicidal rating ZEAMX,"ZEAMX (Corn, Field); Rate 0.0158 kg/ha",7.5
same,Postemergence herbicidal rating ZEAMX,"ZEAMX (Corn, Field); Rate 0.0313 kg/ha",8.3
same,Postemergence herbicidal rating ZEAMX,"ZEAMX (Corn, Field); Rate 0.0625 kg/ha",8.7
same,Postemergence herbicidal rating ZEAMX,"ZEAMX (Corn, Field); Rate 0.1250 kg/ha",8.8
same,Postemergence herbicidal rating ZEAMX,"ZEAMX (Corn, Field); Rate 0.2500 kg/ha",9.0
"C=CCN1C(=O)C(CC(=O)NS(=O)(=O)c2ccccc2)SC1=Nc1cc(-n2c(=O)cc(C(F)(F)F)n(C)c2=O)c(F)cc1Cl (stereo not shown) [Compound 101, 3-Allyl-2-{{2-chloro-5-[3,6-dihydro-3-methyl-2,6-dioxo-4-(trifluoromethyl)-1(2H)-pyrimidinyl]-4-fluorophenyl}imino}-4-oxo-N-(phenylsulfonyl)-5-thiazolidineacetamide]",Herbicidal rating ECHORC,[1]; [9],0.0
same,Herbicidal rating ECHORC,[1]; [10],0.0
same,Herbicidal rating ECHORC,[1]; [11],0.0
same,Herbicidal rating ECHORC,[1]; [12],0.0
same,Herbicidal rating ECHORC,[1]; [13],0.0
same,ECHORC herbicidal effect rating,[2]; 0.0313 kg/ha,0.0
same,ECHORC herbicidal effect rating,[2]; 0.0625 kg/ha,0.0
same,ECHORC herbicidal effect rating,[2]; 0.1250 kg/ha,0.0
same,ECHORC herbicidal effect rating,[2]; 0.2500 kg/ha,0.0
same,ECHORC herbicidal effect rating,[2]; 0.5000 kg/ha,0.0
same,Herbicidal rating GLXMAW,[3]; rate 0.0156 kg/ha,5.5
same,Herbicidal rating GLXMAW,[3]; rate 0.0313 kg/ha,5.5
same,Herbicidal rating GLXMAW,[3]; rate 0.0625 kg/ha,6.0
same,Herbicidal rating GLXMAW,[3]; rate 0.1250 kg/ha,6.5
same,Herbicidal rating ABUTH,ABUTH (Velvetleaf); rate 0.0156 kg/ha,3.0
same,Herbicidal rating ABUTH,ABUTH (Velvetleaf); rate 0.0313 kg/ha,7.0
same,Herbicidal rating ABUTH,ABUTH (Velvetleaf); rate 0.0625 kg/ha,9.0
same,Herbicidal rating ABUTH,ABUTH (Velvetleaf); rate 0.1250 kg/ha,9.0
same,Herbicidal rating SETVI,"SETVI (Foxtail, Green); rate 0.0156 kg/ha",2.0
same,Herbicidal rating SETVI,"SETVI (Foxtail, Green); rate 0.0313 kg/ha",1.0
same,Herbicidal rating SETVI,"SETVI (Foxtail, Green); rate 0.0625 kg/ha",5.0
same,Herbicidal rating SETVI,"SETVI (Foxtail, Green); rate 0.1250 kg/ha",5.0
same,Herbicidal rating IPOHE,[4]; rate 0.0156 kg/ha,4.0
same,Herbicidal rating IPOHE,[4]; rate 0.0313 kg/ha,9.0
same,Herbicidal rating IPOHE,[4]; rate 0.0625 kg/ha,9.0
same,Herbicidal rating IPOHE,[4]; rate 0.1250 kg/ha,9.0
same,Herbicidal rating CYPIR,CYPIR (Rice Flatsedge); [9],0.0
same,Herbicidal rating CYPIR,CYPIR (Rice Flatsedge); [10],0.0
same,Herbicidal rating CYPIR,CYPIR (Rice Flatsedge); [11],0.0
same,Herbicidal rating CYPIR,CYPIR (Rice Flatsedge); [12],3.0
same,Herbicidal rating CYPIR,CYPIR (Rice Flatsedge); [13],4.0
same,CYPSE herbicidal effect rating,CYPSE (Flatsedge); 0.0313 kg/ha,0.0
same,CYPSE herbicidal effect rating,CYPSE (Flatsedge); 0.0625 kg/ha,0.0
same,CYPSE herbicidal effect rating,CYPSE (Flatsedge); 0.1250 kg/ha,0.0
same,CYPSE herbicidal effect rating,CYPSE (Flatsedge); 0.2500 kg/ha,0.0
same,CYPSE herbicidal effect rating,CYPSE (Flatsedge); 0.5000 kg/ha,0.0
same,Herbicidal rating ZEAMX,"ZEAMX (Corn, Field); rate 0.0156 kg/ha",4.5
same,Herbicidal rating ZEAMX,"ZEAMX (Corn, Field); rate 0.0313 kg/ha",4.5
same,Herbicidal rating ZEAMX,"ZEAMX (Corn, Field); rate 0.0625 kg/ha",5.0
same,Herbicidal rating ZEAMX,"ZEAMX (Corn, Field); rate 0.1250 kg/ha",5.0
